From US20050192314A1, “Urea derivatives as C-kit modulators” (Ambit Biosciences Corporation, priority 2003, published 2005)

target: T1, KIT(DKIN) (Homo sapiens, UniProt P10721); experiment: Binding constant (Kd) measurement, phage-displayed kinase competition binding assay: KIT(DKIN)
T1 construct: KIT(DKIN); made in house
Description: The term “ND” represents non-determined values.

T1 sequence (P10721 589-937 limits assumed): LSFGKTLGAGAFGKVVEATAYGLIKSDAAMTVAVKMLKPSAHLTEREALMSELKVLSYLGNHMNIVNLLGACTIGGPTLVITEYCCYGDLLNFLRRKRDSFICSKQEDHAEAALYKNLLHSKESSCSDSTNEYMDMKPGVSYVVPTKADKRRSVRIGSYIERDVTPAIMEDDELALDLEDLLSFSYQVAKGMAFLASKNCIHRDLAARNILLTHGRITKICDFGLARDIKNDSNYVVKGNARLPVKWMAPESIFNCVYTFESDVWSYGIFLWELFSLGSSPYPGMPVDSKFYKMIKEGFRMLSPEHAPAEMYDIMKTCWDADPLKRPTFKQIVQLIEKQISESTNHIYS

Compound | Kd
CC(C)(C)c1cc(NC(=O)Nc2ccc(NC(=O)Cc3ccc(-c4ccccc4)cc3)cc2)no1 [Compound N38] | 0.1 to 1 µM
CC(C)(C)c1cc(NC(=O)Nc2ccc(NC(=O)C3CCCCC3)cc2)no1 [Compound N91] | 1 to 10 µM
CC(C)(C)c1cc(NC(=O)Nc2ccc(OCc3ccc(F)cc3)cc2)no1 [Compound G35] | < 0.1 µM
CC(C)(C)c1cc(NC(=O)Nc2ccc(NC(=O)c3cnccn3)cc2)no1 [Compound N136] | < 0.1 µM
Cc1nnsc1C(=O)Nc1ccc(NC(=O)Nc2cc(C(C)(C)C)on2)cc1 [Compound N18] | 1 to 10 µM
CC(C)(C)c1cc(NC(=O)Nc2ccc(NC(=O)Cc3ccccc3)cc2)no1 [Compound N35] | 0.1 to 1 µM
Cc1ccc(-n2nc(C(C)(C)C)cc2NC(=O)Nc2ccc(OCCN3CCOC(CO)C3)c3ccccc23)cc1 (centres unmarked) [Compound G38] | 0.1 to 1 µM
COc1cc(NC(=O)Nc2cc(C(C)(C)C)no2)cc(OC)c1OC [Compound A49] | 0.1 to 1 µM
CC(C)(C)c1cc(NC(=O)Nc2ccc(OCc3ccc(C(=O)c4ccccc4)cc3)cc2)no1 [Compound G9] | 0.1 to 1 µM
CC(C)(C)c1cc(NC(=O)Nc2ccc(OCc3ccc(-c4ccccc4)cc3)cc2)no1 [Compound G56] | 0.1 to 1 µM
CC(C)(C)c1cc(NC(=O)Nc2ccc(NC(=O)c3cn4cc(Cl)ccc4n3)cc2)no1 [Compound N3] | < 0.1 µM
C=CCOc1ccc(NC(=O)Nc2cc(C(C)(C)C)no2)cc1 [Compound G32] | < 0.1 µM
CC(C)(C)c1cc(NC(=O)Nc2ccc(C(=O)NCc3ccc4c(c3)OCO4)cc2)no1 [Compound N97] | 0.1 to 1 µM
COc1ccc(N(C)C(=O)Nc2cc(C(C)(C)C)on2)cc1 [Compound J10] | 0.1 to 1 µM
COC(=O)c1ccc(C(=O)Nc2ccc(NC(=O)Nc3cc(C(C)(C)C)on3)cc2)nc1 [Compound N12] | 0.1 to 1 µM
COc1ccc(NC(=O)Nc2cc(C(C)(C)C)on2)cc1 [Compound A29] | 1 to 10 µM
Cc1cccnc1-c1noc(-c2ccc(NC(=O)Nc3cc(C(C)(C)C)on3)cc2)n1 [Compound P4] | 0.1 to 1 µM
CC(C)(C)c1cc(NC(=O)Nc2ccc(OCc3ccc4nonc4c3)cc2)no1 [Compound G55] | 0.1 to 1 µM
CC(C)(C)c1cc(NC(=O)Nc2ccc(NC(=O)CCc3ccccc3)cc2)no1 [Compound N96] | 0.1 to 1 µM
CC(C)(C)c1cc(NC(=O)Nc2ccc(-c3nc(-c4ccc(Cl)cc4)no3)cc2)no1 [Compound P7] | 0.1 to 1 µM
CC(C)Oc1ccc(NC(=O)Nc2cc(C(C)(C)C)no2)cc1 [Compound G33] | < 0.1 µM

Compound | Kd
CC(C)(C)c1cc(NC(=O)Nc2ccc(OCc3c(F)cccc3F)cc2)no1 [Compound G21] | < 0.1 µM
CC(C)(C)c1cc(NC(=O)Nc2ccc(NC(=O)c3cccc(O)n3)cc2)no1 [Compound N131] | < 0.1 µM
O=C(Nc1ccccc1)Nc1ccc(-n2cnc(Cl)c2Cl)cc1 [Compound Z65] | 1 to 10 µM
Cn1nc(-c2ccccc2)c2cc(C(=O)Nc3ccc(NC(=O)Nc4cc(C(C)(C)C)on4)cc3)sc21 [Compound N5] | 0.1 to 1 µM
CC(C)(C)c1cc(NC(=O)Nc2ccc(NC(=O)c3cc([N+](=O)[O-])ccn3)cc2)no1 [Compound N7] | < 0.1 µM
CC(C)(C)OC(=O)Nc1ccc(NC(=O)Nc2cc(C(C)(C)C)on2)cc1 [Compound N101] | 0.1 to 1 µM
CC(C)(C)c1cc(NC(=O)Nc2ccc(CCc3ccc(N)cc3)cc2)no1 [Compound A3] | < 0.1 µM
CC1CN(CCOc2ccc(NC(=O)Nc3cc(C(C)(C)C)on3)cc2)CC(C)O1 (centres unmarked) [Compound G42] | 1 to 10 µM
CC(C)(C)c1cc(NC(=O)Nc2ccc(OCCN3CCNCC3)cc2)no1 [Compound G52] | > 10 µM
CC(C)(C)c1cc(NC(=O)Nc2ccc(OCc3ccc(F)cc3Cl)cc2)no1 [Compound G18] | 0.1 to 1 µM
CC(C)(C)c1cc(NC(=O)Nc2ccc(NC(=O)c3csc(-c4ccc(Cl)cc4)n3)cc2)no1 [Compound N124] | 0.1 to 1 µM
CC(C)(C)c1cc(NC(=O)Nc2ccc(OCc3c(Cl)cccc3Cl)cc2)no1 [Compound G19] | 0.1 to 1 µM
CC(C)(C)c1cc(NC(=O)Nc2ccc(OCCN3CCC(O)CC3)cc2)no1 [Compound G48] | > 10 µM
Cn1cc(C(=O)Nc2ccc(NC(=O)Nc3cc(C(C)(C)C)on3)cc2)c2ccccc21 [Compound N119] | 0.1 to 1 µM
CC(C)(C)c1cc(NC(=O)Nc2ccc(OCc3ccccc3Cl)cc2)no1 [Compound G10] | < 0.1 µM
Cn1nc(-c2ccccc2)c(C(=O)Cc2ccc(NC(=O)Nc3cc(C(C)(C)C)on3)cc2)c1Cl [Compound N11] | > 10 µM
CC(C)(C)c1cc(NC(=O)Nc2ccc(NS(=O)(=O)c3ccccc3)cc2)no1 [Compound V1] | 1 to 10 µM
CC(C)(C)c1cc(NC(=O)Nc2ccc(OCC3CCC3)cc2)no1 [Compound G39] | < 0.1 µM
CC(C)(C)c1cc(NC(=O)Nc2ccccc2)no1 [Compound A2] | 0.1 to 1 µM
CC(C)(C)c1cc(NC(=O)Nc2ccc(NC(=O)C(N)Cc3ccccc3F)cc2)no1 (centres unmarked) [Compound N42] | 1 to 10 µM
CC(C)(C)c1cc(NC(=O)Nc2ccc(CCc3ccccc3)cc2)no1 [Compound A15] | 0.1 to 1 µM

Compound | Kd
CC(C)(C)c1cc(NC(=O)Nc2ccc(OCc3cccc(F)c3)cc2)no1 [Compound G14] | 0.1 to 1 µM
Cc1ccc(COc2ccc(NC(=O)Nc3cc(C(C)(C)C)on3)cc2)cc1 [Compound G15] | 0.1 to 1 µM
CC(C)(C)c1cc(NC(=O)Nc2ccc(NC(=O)c3ncc[nH]3)cc2)no1 [Compound N13] | < 0.1 µM
CC(C)(C)c1cc(NC(=O)Nc2ccc(OCc3ccccc3C(F)(F)F)cc2)no1 [Compound G4] | 0.1 to 1 µM
CC(C)(C)c1cc(NC(=O)Nc2ccc(NC(=O)c3c(F)cccc3F)cc2)no1 [Compound N37] | 1 to 10 µM
CC(C)(C)c1cc(NC(=O)Nc2ccc(NC(=O)CC(N)c3ccccc3Cl)cc2)no1 (centres unmarked) [Compound N44] | 1 to 10 µM
Cn1cc(C(=O)Nc2ccc(NC(=O)Nc3cc(C(C)(C)C)on3)cc2)c(C(F)(F)F)n1 [Compound N20] | 0.1 to 1 µM
CC(C)(C)c1cc(NC(=O)Nc2ccc(OCCc3ccc(F)cc3)cc2)no1 [Compound G24] | 0.1 to 1 µM
Cc1nccn1CCOc1ccc(NC(=O)Nc2cc(C(C)(C)C)on2)cc1 [Compound G51] | 0.1 to 1 µM
CC(C)(C)c1cc(NC(=O)Nc2ccc(NC(=O)c3cnc(Cl)c(Cl)c3)cc2)no1 [Compound N123] | 1 to 10 µM
CC(C)(C)c1cc(NC(=O)Nc2ccc(NC(=O)c3c(F)cccc3C(F)(F)F)cc2)no1 [Compound N95] | 1 to 10 µM
Cn1c(SCC(=O)Nc2ccc(NC(=O)Nc3cc(C(C)(C)C)on3)cc2)nnc1-c1cccn(Cc2ccccc2)c1=O [Compound Z47] | 0.1 to 1 µM
CC(C)(C)c1cc(NC(=O)Nc2ccc(NC(=O)c3ccc4cccnc4n3)cc2)no1 [Compound N144] | 0.1 to 1 µM
CC(C)(C)c1cc(NC(=O)Nc2ccc(C(=O)Nc3ccc(F)cc3F)cc2)no1 [Compound N153] | 0.1 to 1 µM
CC(C)(C)c1cc(NC(=O)Nc2ccc(NC(=O)C3CNCCN3)cc2)no1 (centres unmarked) [Compound N152] | > 10 µM
CC(C)(C)c1cc(N2CCCN(c3ccc(OCc4ccccc4)cc3)C2=O)on1 [Compound E2] | 1 to 10 µM
CC(C)(C)c1cc(NC(=O)Nc2ccc(NC(=O)c3cccc4cccnc34)cc2)no1 [Compound N115] | < 0.1 µM
CC(C)(C)c1cc(NC(=O)Nc2ccc(NC(=O)c3cnc4ccccc4n3)cc2)no1 [Compound N149] | 1 to 10 µM
O=C(Nc1ccc(Cl)cc1)Nc1ccc(-n2nc(Br)c(Br)c2Br)cc1 [Compound Z49] | 0.1 to 1 µM
CC(C)(C)c1cc(NC(=O)Nc2ccc(NC(=O)c3cccc4nsnc34)cc2)no1 [Compound N109] | 0.1 to 1 µM
COc1cc(C(=O)Nc2ccc(NC(=O)Nc3cc(C(C)(C)C)on3)cc2)nc2ccccc12 [Compound N137] | 0.1 to 1 µM

Compound | Kd
CC(C)(C)c1cc(NC(=O)Nc2ccc(OCCc3ccccc3F)cc2)no1 [Compound G25] | 0.1 to 1 µM
CC(C)(C)c1cc(NC(=O)Nc2ccc(NC(=O)c3ccc(Cl)cc3Cl)cc2)no1 [Compound N130] | 1 to 10 µM
CC(C)(CO)c1cc(NC(=O)Nc2ccc(Cl)cc2)on1 [Compound A22] | 1 to 10 µM
CC1CCCN(CCOc2ccc(NC(=O)Nc3cc(C(C)(C)C)on3)cc2)C1 (centres unmarked) [Compound G44] | > 10 µM
Cc1ccc(NC(=O)c2ccc(NC(=O)Nc3cc(C(C)(C)C)on3)cc2)cc1 [Compound N84] | < 0.1 µM
CC(C)(C)c1cc(NC(=O)Nc2ccc(C(=O)Nc3ccc(Cl)cc3)cc2)no1 [Compound N156] | 1 to 10 µM
COc1ccc(NC(=O)Nc2cc(C(C)(C)C)no2)cc1 [Compound A30] | 0.1 to 1 µM
Cc1ccncc1C(=O)Nc1ccc(NC(=O)Nc2cc(C(C)(C)C)on2)cc1 [Compound N104] | 0.1 to 1 µM
CC(C)(C)c1cc(NC(=O)Nc2ccc(NC(=O)c3csnn3)cc2)no1 [Compound N14] | 0.1 to 1 µM
CC1CN(CCOc2ccc(NC(=O)Nc3cc(C(C)(C)C)on3)cc2)CCN1 (centres unmarked) [Compound G46] | > 10 µM
CC(C)(C)c1cc(NC(=O)Nc2ccc(N)cc2)no1 [Compound C1, 1-(5-tert-butylisoxazol-3-yl)-3-(4-aminophenyl)urea] | 1 to 10 µM
CC(C)(C)c1cc(NC(=O)Nc2ccc(NC(=O)c3cc(Cl)cc(Cl)c3)cc2)no1 [Compound N29] | 0.1 to 1 µM
CC(C)(C)c1cc(NC(=O)Nc2ccc(OCc3ccc(Cl)cc3)cc2)no1 [Compound G34] | < 0.1 µM
CC(C)(C)c1cc(NC(=O)Nc2ccc(C(=O)Nc3cccc(C(F)(F)F)c3)cc2)no1 [Compound N154] | 1 to 10 µM
CC(C)(C)c1cc(NC(=O)Nc2ccc(OCc3ccc(C(F)(F)F)cc3)cc2)no1 [Compound G6] | 0.1 to 1 µM
Cc1cc(C)n(C(=O)Nc2ccc(Cl)cc2)n1 [Compound Z52] | > 10 µM
CC(C)(C)c1cc(NC(=O)Nc2ccc(Oc3ccccc3)cc2)no1 [Compound A24] | 0.1 to 1 µM
COc1cccc(CNC(=O)Nc2cc(C(C)(C)C)on2)c1 [Compound B3] | 1 to 10 µM
CC(C)(C)c1cc(NC(=O)Nc2ccc(OCCc3ccccn3)cc2)no1 [Compound G27] | 0.1 to 1 µM
CC(C)(C)c1cc(NC(=O)Nc2ccc(OCCc3ccncc3)cc2)no1 [Compound G22] | < 0.1 µM
